In DBAASP:
Values after ≈ are worked out from the molar mass of the structure shown.

What was measured:
Test in all cases: ≥ marks a high value that may be exact or a test limit, other limits are often not marked, values filed in µg/mL are converted to µM
[1] = system: Pseudomonas aeruginosa H188
[2] = system: Escherichia coli DH5alpha
Escherichia coli = system: Escherichia coli
[3] = system: Escherichia coli ATCC 25922
[4] = system: Pseudomonas aeruginosa ATCC 27853
Pseudomonas aeruginosa = system: Pseudomonas aeruginosa
Streptococcus pneumoniae = system: Streptococcus pneumoniae
Enterococcus faecalis = system: Enterococcus faecalis
Klebsiella pneumoniae = system: Klebsiella pneumoniae
Staphylococcus aureus = system: Staphylococcus aureus
[5] = system: Stenotrophomonas maltophilia
Staphylococcus aureus MR = system: Staphylococcus aureus MR
Serratia marcescens = system: Serratia marcescens
Acinetobacter baumannii = system: Acinetobacter baumannii
Enterococcus faecium = system: Enterococcus faecium

Compound | MIC [1] | MIC [2] | MIC (Escherichia coli) | MIC [3] | MIC [4] | MIC (Pseudomonas aeruginosa) | MIC (Streptococcus pneumoniae) | MIC (Enterococcus faecalis) | MIC (Klebsiella pneumoniae) | MIC (Staphylococcus aureus) | MIC [5] | MIC (Staphylococcus aureus MR) | MIC (Serratia marcescens) | MIC (Acinetobacter baumannii) | MIC (Enterococcus faecium)
CC[C@H](C)[C@H](NC(=O)[C@H](C)NC(=O)[C@H](CCCCN)NC(=O)[C@H](CC(C)C)NC(=O)[C@H](C)NC(=O)[C@@H](NC(=O)[C@H](Cc1cnc[nH]1)NC(=O)[C@H](CC(C)C)NC(=O)[C@H](CCCCN)NC(=O)[C@@H](NC(=O)[C@H](CCCCN)NC(=O)[C@H](CCCCN)NC(=O)[C@H](C)NC(=O)[C@H](CO)NC(=O)[C@H](CCCCN)NC(=O)[C@H](Cc1ccccc1)NC(=O)[C@@H](NC(=O)[C@H](CCCCN)NC(=O)[C@H](CC(C)C)NC(=O)[C@H](Cc1ccccc1)NC(=O)[C@H](CO)NC(=O)[C@H](CCCCN)NC(=O)[C@H](Cc1c[nH]c2ccccc12)NC(=O)[C@H](CCCCN)NC(C)=O)[C@@H](C)O)[C@@H](C)O)[C@@H](C)O)C(=O)N[C@@H](CO)C(=O)N[C@@H](CO)C(N)=O [KWKSFLKTFKSAKKTKLHTALKAISS] | 5.37 µM (≈ 16.2 µg/mL) | 5.37 µM (≈ 16.2 µg/mL) | 2.69 µM (≈ 8.11 µg/mL) | 10.7 µM (≈ 32.4 µg/mL) | 10.7 µM (≈ 32.4 µg/mL) | – | – | – | – | – | – | – | – | – | –
CC[C@H](C)[C@H](NC(=O)[C@H](C)NC(=O)[C@H](CCCCN)NC(=O)[C@H](CC(C)C)NC(=O)[C@H](C)NC(=O)[C@@H](NC(=O)[C@H](Cc1cnc[nH]1)NC(=O)[C@H](CC(C)C)NC(=O)[C@H](CO)NC(=O)[C@@H](NC(=O)[C@H](CCCCN)NC(=O)[C@H](CCCCN)NC(=O)[C@H](C)NC(=O)[C@H](CO)NC(=O)[C@H](CCCCN)NC(=O)[C@H](Cc1ccccc1)NC(=O)[C@@H](NC(=O)[C@H](CCCCN)NC(=O)[C@H](CC(C)C)NC(=O)[C@H](Cc1ccccc1)NC(=O)[C@H](CO)NC(=O)[C@H](CCCCN)NC(=O)[C@H](Cc1c[nH]c2ccccc12)NC(=O)[C@H](CCCCN)NC(C)=O)[C@@H](C)O)[C@@H](C)O)[C@@H](C)O)C(=O)N[C@@H](CO)C(=O)N[C@@H](CO)C(N)=O [KWKSFLKTFKSAKKTSLHTALKAISS] | 1.36 µM (≈ 4.06 µg/mL) | 2.72 µM (≈ 8.11 µg/mL) | 5.45 µM (≈ 16.2 µg/mL) | 2.72 µM (≈ 8.11 µg/mL) | 10.9 µM (≈ 32.4 µg/mL) | – | – | – | – | – | – | – | – | – | –
CC[C@H](C)[C@H](NC(=O)[C@H](CC(C)C)NC(=O)CNC(=O)[C@H](CO)NC(=O)[C@@H](NC(=O)[C@H](CC(C)C)NC(=O)[C@@H](N)CC(N)=O)C(C)C)C(=O)N[C@@H](CCC(=O)O)C(=O)N[C@@H](C)C(=O)N[C@@H](CCCN=C(N)N)C(=O)N[C@@H](CCCCN)C(=O)N[C@@H](Cc1ccc(O)cc1)C(=O)N[C@@H](CC(C)C)C(=O)N[C@@H](CCC(=O)O)C(=O)N[C@@H](CCC(N)=O)C(=O)N[C@@H](CC(C)C)C(=O)N[C@@H](Cc1cnc[nH]1)C(=O)N[C@@H](CCCN=C(N)N)C(=O)N[C@@H](CCCCN)C(=O)N[C@@H](CC(C)C)C(=O)N[C@@H](CCCCN)C(=O)N[C@@H](CC(N)=O)C(=O)N[C@@H](CS)C(=O)N[C@@H](CCCCN)C(=O)N[C@H](C(=O)O)C(C)C [NLVSGLIEARKYLEQLHRKLKNCKV] | – | – | 2.71 µM (≈ 8.02 µg/mL) | – | – | 15.3 µM (≈ 45.3 µg/mL) | 3.84 µM (≈ 11.3 µg/mL) | 3.84 µM (≈ 11.3 µg/mL) | 3.84 µM (≈ 11.3 µg/mL) | 3.84 µM (≈ 11.3 µg/mL) | 10.8 µM (≈ 32 µg/mL) | 3.84 µM (≈ 11.3 µg/mL) | 7.65 µM (≈ 22.6 µg/mL) | 15.3 µM (≈ 45.3 µg/mL) | 10.8 µM (≈ 32 µg/mL)
